The source of these data is patent publication US8012956B2, “Tropane compounds” (Exelixis, Inc., priority 2007, dated 2011).

The experiment deals with HSP90 (Homo sapiens, UniProt P07900). Briefly: HSP90 inhibition (HSP90 IC50). It counts as biochemical.
What is called IC50 is the concentration needed to halve the response being measured. Turning to `NC(=O)c1ccc(C(=O)N[C@H]2C[C@H]3CC[C@@H](C2)N3c2ccc(C(=O)CN3CCCCC3)cn2)cc1NCC1CC1` [2-[(cyclopropylmethyl)amino]-N4-{8-[5-(piperidin-1-ylacetyl)pyridin-2-yl]-8-azabicyclo[3.2.1]oct-3-endo-yl}benzene-1,4-dicarboxamide], the IC50 lay within 2000 to 10000 nM.
The same measure for `CNc1cccc(C(=O)NC2CC3CCC(C2)N3c2ccc(C(=O)N[C@@H](C)c3ccc(N4CCN(C)CC4)cc3)cn2)c1C` (stereo partly drawn) [6-[3-endo-({[2-methyl-3-(methylamino)phenyl]carbonyl}amino)-8-azabicyclo[3.2.1]oct-8-yl]-N-{(1S)-1-[4-(4-methylpiperazin-1-yl)phenyl]ethyl}pyridine-3-carboxamide]: below 500 nM; for `Cc1cc(C(N)=O)c(NC(C)(C)C)cc1C(=O)N[C@H]1C[C@H]2CC[C@@H](C1)N2c1ccc(C(=O)C2CC2)cn1` [N-{8-[5-(cyclopropylcarbonyl)pyridin-2-yl]-8-azabicyclo[3.2.1]oct-3-endo-yl}-5-[(1,1-dimethylethyl)amino]-2-methylbenzene-1,4-dicarboxamide]: below 500 nM.
The result for `CCCCNc1cc(C(=O)N[C@H]2C[C@H]3CC[C@@H](C2)N3c2ccc(C(=O)C3CC3)cn2)ccc1C(N)=O` [2-(butylamino)-N4-{8-[5-(cyclopropylcarbonyl)pyridin-2-yl]-8-azabicyclo[3.2.1]oct-3-endo-yl}benzene-1,4-dicarboxamide] reads below 500 nM.
The result for `CCC(CC)Nc1cc(C(=O)N[C@H]2C[C@H]3CC[C@@H](C2)N3c2ccc(C(=O)C3CC3)cn2)ccc1C(N)=O` [N4-{8-[5-(cyclopropylcarbonyl)pyridin-2-yl]-8-azabicyclo[3.2.1]oct-3-endo-yl}-2-[(1-ethylpropyl)amino]benzene-1,4-dicarboxamide] reads below 500 nM.
In turn, `CCNC(=O)c1ccc(N2[C@@H]3CC[C@H]2C[C@@H](NC(=O)c2cccc(OC)c2C)C3)nc1` [N-ethyl-6-[3-endo-({[2-methyl-3-(methyloxy)phenyl]carbonyl}amino)-8-azabicyclo[3.2.1]oct-8-yl]pyridine-3-carboxamide] showed an IC50 of 500 to 999 nM.
`CC(=O)c1ccc(N2[C@@H]3CC[C@H]2C[C@@H](NC(=O)c2ccc(C(N)=O)c(NCCOC(C)C)c2)C3)nc1` [N4-[8-(5-acetylpyridin-2-yl)-8-azabicyclo[3.2.1]oct-3-endo-yl]-2-({2-[(1-methylethyl)oxy]ethyl}amino)benzene-1,4-dicarboxamide]: the concentration for half-maximal inhibition (IC50) was below 500 nM.
The compound `COc1cccc(C(=O)NC2CC3CCC(C2)N3c2ccc(C(=O)NCCC3CCCN3C)cn2)c1C` (stereo not drawn) [6-[3-endo-({[2-methyl-3-(methyloxy)phenyl]carbonyl}amino)-8-azabicyclo[3.2.1]oct-8-yl]-N-[2-(1-methylpyrrolidin-2-yl)ethyl]pyridine-3-carboxamide] gave an IC50 of 500 to 999 nM.
The result for `Cc1cc(C(N)=O)c(NCC(C)(C)C)cc1C(=O)N[C@H]1C[C@H]2CC[C@@H](C1)N2c1ccc(C(=O)C2CC2)cn1` [N-{8-[5-(cyclopropylcarbonyl)pyridin-2-yl]-8-azabicyclo[3.2.1]oct-3-endo-yl)-5-[(2,2-dimethylpropyl)amino]-2-methylbenzene-1,4-dicarboxamide] reads below 500 nM; that for `CC(C)C(O)CC(=O)c1ccc(N2[C@@H]3CC[C@H]2C[C@@H](NC(=O)c2ccc(C(N)=O)c(NCC4CC4)c2)C3)nc1` (stereo partly drawn) [2-[(cyclopropylmethyl)amino]-N4-{8-[5-(3-hydroxy-4-methylpentanoyl)pyridin-2-yl]-8-azabicyclo[3.2.1]oct-3-endo-yl}benzene-1,4-dicarboxamide], below 500 nM.
The result for `CC[C@H](NC(=O)c1ccc(N2C3CCC2CC(NC(=O)c2cccc(OC)c2C)C3)nc1)c1ccccc1` (stereo partly drawn) [6-[3-endo-({[2-methyl-3-(methyloxy)phenyl]carbonyl}amino)-8-azabicyclo[3.2.1]oct-8-yl]-N-[(1S)-1-phenylpropyl]pyridine-3-carboxamide] reads 500 to 999 nM; that for `C[C@H](NC(=O)c1ccc(N2C3CCC2CC(NC(=O)c2ccc(C(N)=O)c(Nc4ccncc4)c2)C3)nc1)c1ccc(N2CCN(C)CC2)cc1` (some centres unmarked), below 500 nM; that for `NC(=O)c1ccc(C(=O)N[C@H]2C[C@H]3CC[C@@H](C2)N3c2ccc(C(=O)C3CCC3)cn2)cc1NCC1CC1` [N4-{8-[5-(cyclobutylcarbonyl)pyridin-2-yl]-8-azabicyclo[3.2.1]oct-3-endo-yl}-2-[(cyclopropylmethyl)amino]benzene-1,4-dicarboxamide], 1000 to 2000 nM.
Regarding `CCNC(=O)[C@@H](NC(=O)c1ccc(N2C3CCC2CC(NC(=O)c2cccc(OC)c2C)C3)nc1)c1ccc(OC)cc1` (stereo partly drawn) [N-{(1S)-2-(ethylamino)-1-{4-(methyloxy)phenyl]-2-oxoethyl}-6-[3-endo-({[2-methyl-3-(methyloxy)phenyl]carbonyl}amino)-8-azabicyclo[3.2.1]oct-8-yl]pyridine-3-carboxamide], the IC50 was in the range of 500 to 999 nM.
The same measure for `CC[C@@H](C)Nc1cc(C(=O)NC2CC3CCC(C2)N3c2ccc(C(=O)C3CC3)cn2)c(Br)cc1C(N)=O` (stereo partly drawn) [2-bromo-N-{8-[5-(cyclopropylcarbonyl)pyridin-2-yl]-8-azabicyclo[3.2.1]oct-3-endo-yl}-5-{[(1R)-1-methylpropyl]amino}benzene-1,4-dicarboxamide]: below 500 nM; for `Cc1cc(OC(N)=O)ccc1C(=O)N[C@H]1C[C@H]2CC[C@@H](C1)N2c1ccc(C(=O)NCc2ccccc2)cn1` [3-methyl-4-({[8-(5-{[(phenylmethyl)amino]carbonyl}pyridin-2-yl)-8-azabicyclo[3.2.1]oct-3-endo-yl]amino}carbonyl)phenyl carbamate]: 2000 to 10000 nM; for `COc1cccc(C(=O)N[C@H]2C[C@H]3CC[C@@H](C2)N3c2ccc(C(=O)NCc3ccc(C4CCN(C)CC4)cc3)cn2)c1C` [6-[3-endo-({[2-methyl-3-(methyloxy)phenyl]carbonyl}amino)-8-azabicyclo[3.2.1]oct-8-yl]-N-{[4-(1-methylpiperidin-4-yl)phenyl]methyl}pyridine-3-carboxamide]: below 500 nM.
The same measure for `COc1cccc(C(=O)NC2CC3CCC(C2)N3c2ccc(C(=O)N[C@@H]3CCNC3)cn2)c1C` (stereo partly drawn) [6-[3-endo-({[2-methyl-3-(methyloxy)phenyl]carbonyl}amino)-8-azabicyclo[3.2.1]oct-8-yl]-N-[(3R)-pyrrolidin-3-yl]pyridine-3-carboxamide]: 500 to 999 nM; for `CC(C)CNc1cc(C(=O)N[C@H]2C[C@H]3CC[C@@H](C2)N3c2ccc(C(=O)C3CC3)cn2)c(Br)cc1C(N)=O` [2-bromo-N-{8-[5-(cyclopropylcarbonyl)pyridin-2-yl]-8-azabicyclo[3.2.1]oct-3-endo-yl}-5-[(2-methylpropyl)amino]benzene-1,4-dicarboxamide]: below 500 nM; for `NC(=O)c1cc(Br)c(C(=O)N[C@H]2C[C@H]3CC[C@@H](C2)N3c2ccc(C(=O)C3CC3)cn2)cc1NC1CCC1` [2-bromo-5-(cyclobutylamino)-N-{8-[5-(cyclopropylcarbonyl)pyridin-2-yl]-8-azabicyclo[3.2.1]oct-3-endo-yl}benzene-1,4-dicarboxamide]: below 500 nM.
The result for `COc1cccc(C(=O)NC2CC3CCC(C2)N3c2ccc(C(=O)NC(C)c3ccc(C4CCNCC4)cc3F)cn2)c1C` (stereo not drawn) [N-[1-(2-fluoro-4-piperidin-4-ylphenyl)ethyl]-6-[3-endo-({[2-methyl-3-(methyloxy)phenyl]carbonyl}amino)-8-azabicyclo[3.2.1]oct-8-yl]pyridine-3-carboxamide] reads below 500 nM; that for `CC(=O)c1ccc(N2[C@@H]3CC[C@H]2C[C@@H](NC(=O)c2ccc(C(N)=O)c(NCC(F)(F)C(F)(F)F)c2)C3)nc1` [N4-[8-(5-acetylpyridin-2-yl)-8-azabicyclo[3.2.1]oct-3-endo-yl]-2-[(2,2,3,3,3-pentafluoropropyl)amino]benzene-1,4-dicarboxamide], below 500 nM.
`COC(=O)[C@@H](NC(=O)c1ccc(N2C3CCC2CC(NC(=O)c2cccc(OC)c2C)C3)nc1)c1ccc(OC)cc1` (some centres unmarked): the IC50 is 1000 to 2000 nM.
The compound `COc1cccc(C(=O)N[C@H]2C[C@H]3CC[C@@H](C2)N3c2ccc(C(=O)NCc3cccc(Cl)c3)cn2)c1C` [N-[(3-chlorophenyl)methyl]-6-[3-endo-({[2-methyl-3-(methyloxy)phenyl]carbonyl}amino) 8-azabicyclo[3.2.1]oct-8-yl]pyridine-3-carboxamide] returned a concentration for half-maximal inhibition (IC50) of 2000 to 10000 nM.
In the case of `CCC(C)Nc1cc(C(=O)N[C@H]2C[C@H]3CC[C@@H](C2)N3c2ccc(C(=O)C3CC3)cn2)ccc1C(N)=O` (stereo partly drawn) [N4-{8-[5-(cyclopropylcarbonyl)pyridin-2-yl]-8-azabicyclo[3.2.1]oct-3-endo-yl}-2-[(1-methylpropyl)amino]benzene-1,4-dicarboxamide], the IC50 was below 500 nM.
Compound `CN(C)CCC(=O)c1ccc(N2[C@@H]3CC[C@H]2C[C@@H](NC(=O)c2ccc(C(N)=O)c(NCC4CC4)c2)C3)nc1` [2-[(cyclopropylmethyl)amino]-N4-{8-[5-(N,N-dimethyl-beta-alanyl)pyridin-2-yl]-8-azabicyclo[3.2.1]oct-3-endo-yl}benzene-1,4-dicarboxamide] yielded an IC50 below 500 nM.
The result for `COc1ccc(CNC(=O)c2ccc(N3[C@@H]4CC[C@H]3C[C@@H](NC(=O)c3cccc(OC)c3C)C4)nc2)cc1F` [N-{[3-fluoro-4-(methyloxy)phenyl]methyl}-6-[3-endo-({[2-methyl-3-(methyloxy)phenyl]carbonyl}amino)-8-azabicyclo[3.2.1]oct-8-yl]pyridine-3-carboxamide] reads below 500 nM; that for `CCC(C)Nc1cc(C(=O)N[C@H]2C[C@H]3CC[C@@H](C2)N3c2ccc(C(C)=O)cn2)ccc1C(N)=O` (stereo partly drawn) [N4-[8-(5-acetylpyridin-2-yl)-8-azabicyclo[3.2.1]oct-3-endo-yl]-2-((1-methylpropyl)amino]benzene-1,4-dicarboxamide], below 500 nM; that for `Cc1cccc(C(=O)N[C@H]2C[C@H]3CC[C@@H](C2)N3c2ccc(C(=O)NCc3ccccc3)cn2)c1C` [6-(3-endo-{[(2,3-dimethylphenyl)carbonyl]amino}-8-azabicyclo[3.2.1]oct-8-yl)-N-(phenylmethyl)pyridine-3-carboxamide], 2000 to 10000 nM.
